pIC50: −log10 of the molar value.
Legend:
[1] = molecular target: T1, Vascular endothelial growth factor receptor 2 (Homo sapiens, UniProt P35968)
Description: Inhibition of KDR by HTRF assay

[2] = test system: Mus musculus; experiment: Half life in CD1 mouse at 3 mg/kg, iv; format: ADME, organism-based; parameters: dose 3 mg/kg, route intravenous; settings: in vivo
[3] = molecular target: T1, Vascular endothelial growth factor receptor 2; experiment: Inhibition of human KDR phosphorylation expressed in mouse NIH3T3 cells by ELISA; format: cell-based
[4] = test system: Mus musculus; experiment: Inhibition of estradiol-induced uterine edema in BALB/c mouse at 10 mg/kg, po administered 30 mins prior to 17-beta-estradiol challenge after 2 hrs; settings: read-out: INH
[5] = Oral bioavailability in CD1 mouse at 10 mg/kg; format: ADME, organism-based; settings: in vivo
[6] = Cmax in CD1 mouse at 10 mg/kg, po; format: ADME, organism-based; parameters: dose 10 mg/kg, route oral; settings: in vivo
[7] = AUC in CD1 mouse at 10 mg/kg, po; format: ADME, organism-based; parameters: dose 10 mg/kg, route oral; settings: plasma
[8] = AUC in CD1 mouse at 3 mg/kg, iv; format: ADME, organism-based; parameters: dose 3 mg/kg, route intravenous; settings: plasma
[9] = test system: Mus musculus; experiment: Volume of distribution in CD1 mouse at 3 mg/kg, iv; format: ADME, organism-based; parameters: dose 3 mg/kg, route intravenous; settings: in vivo

T1 sequence (P35968 whole entry): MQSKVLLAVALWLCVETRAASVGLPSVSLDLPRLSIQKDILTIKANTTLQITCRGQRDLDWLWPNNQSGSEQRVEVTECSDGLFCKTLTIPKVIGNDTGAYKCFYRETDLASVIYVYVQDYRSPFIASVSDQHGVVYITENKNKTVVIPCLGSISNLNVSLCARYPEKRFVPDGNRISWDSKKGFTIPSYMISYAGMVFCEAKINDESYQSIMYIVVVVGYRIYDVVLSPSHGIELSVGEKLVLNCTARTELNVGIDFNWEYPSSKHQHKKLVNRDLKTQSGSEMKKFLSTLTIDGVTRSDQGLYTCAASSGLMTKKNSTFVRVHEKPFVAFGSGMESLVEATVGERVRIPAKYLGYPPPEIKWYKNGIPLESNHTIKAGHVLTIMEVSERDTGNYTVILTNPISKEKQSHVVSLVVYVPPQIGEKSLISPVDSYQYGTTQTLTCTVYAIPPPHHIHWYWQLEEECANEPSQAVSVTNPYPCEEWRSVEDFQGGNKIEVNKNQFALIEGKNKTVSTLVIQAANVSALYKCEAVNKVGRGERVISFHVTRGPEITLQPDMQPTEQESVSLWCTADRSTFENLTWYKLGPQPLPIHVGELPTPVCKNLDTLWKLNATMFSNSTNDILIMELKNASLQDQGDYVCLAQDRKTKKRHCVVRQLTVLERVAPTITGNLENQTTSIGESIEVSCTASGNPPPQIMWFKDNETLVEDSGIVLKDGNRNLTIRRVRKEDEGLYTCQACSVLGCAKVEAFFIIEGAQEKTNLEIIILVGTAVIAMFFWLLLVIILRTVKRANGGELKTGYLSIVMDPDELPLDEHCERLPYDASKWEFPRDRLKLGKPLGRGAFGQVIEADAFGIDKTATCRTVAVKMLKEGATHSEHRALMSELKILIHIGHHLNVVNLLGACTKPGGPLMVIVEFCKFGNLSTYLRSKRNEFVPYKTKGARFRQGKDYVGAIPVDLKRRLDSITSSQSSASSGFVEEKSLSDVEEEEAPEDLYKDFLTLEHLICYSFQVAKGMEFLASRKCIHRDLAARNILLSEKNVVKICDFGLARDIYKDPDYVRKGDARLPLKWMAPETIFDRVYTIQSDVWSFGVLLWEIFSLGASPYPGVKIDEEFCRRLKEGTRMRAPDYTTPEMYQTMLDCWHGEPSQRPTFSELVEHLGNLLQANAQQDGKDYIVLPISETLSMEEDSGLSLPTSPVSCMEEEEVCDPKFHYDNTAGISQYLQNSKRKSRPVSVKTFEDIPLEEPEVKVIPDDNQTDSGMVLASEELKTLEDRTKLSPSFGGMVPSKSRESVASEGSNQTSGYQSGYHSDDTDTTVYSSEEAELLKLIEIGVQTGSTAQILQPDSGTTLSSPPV

Structure (SMILES)	pIC50 [1]	also measured
CNC(=O)c1cnn2c(N)c(-c3ccc(NC(=O)Nc4cccc(C)c4)cc3)cnc12	7.00	–
Nc1c(-c2ccccc2)cnc2c(Br)cnn12	< 4.90	–
Cc1cccc(NC(=O)Nc2cccc(-c3cnc4ccnn4c3N)c2)c1	5.18	–
CCN(CC)CCNC(=O)c1cnn2c(N)c(-c3ccc(NC(=O)Nc4cccc(C)c4)cc3)cnc12	6.30	–
Nc1c(-c2ccc(NC(=O)Nc3cccc(Cl)c3)cc2)cnc2ccnn12	7.36	–
Cc1cccc(NC(=O)Nc2ccc(-c3cnc4c(C(=O)O)cnn4c3N)cc2)c1	5.70	–
Cc1cccc(NC(=O)Nc2ccc(-c3cnc4cc(C)nn4c3N)cc2)c1	5.46	–
COc1ccc(-c2cnc3c(-c4ccsc4)cnn3c2N)cc1	5.21	–
Cc1cccc(NC(=O)Nc2ccc(-c3cnc4c(C(=O)N5CCN(C)CC5)cnn4c3N)cc2)c1	6.10	–
Cc1ccc(F)c(NC(=O)Nc2ccc(-c3cnc4ccnn4c3N)cc2)c1	7.13	–
Cc1cccc(NC(=O)Nc2ccc(-c3cnc4cc(-c5ccccc5)nn4c3N)cc2)c1	< 4.90	–
Cc1cccc(NC(=O)Nc2ccc(-c3cnc4c(-c5cnn(C)c5)cnn4c3N)cc2)c1	8.40	t1/2 [2]: 15 min; pIC50 [3]: 9.15; inhibition in vivo at 10 mg/kg [4]: 49%; bioavailability [5]: 14%; Cmax [6]: 0.36 µM; AUC [7]: 0.81 µg·h/mL; AUC [8]: 1.8 µg·h/mL; Vd [9]: 1.4 L/kg
Nc1c(-c2ccc(NC(=O)c3ccccc3)cc2)cnc2c(Br)cnn12	< 4.90	–
Cn1cc(-c2ccn3c(N)c(-c4ccc(NC(=O)Nc5cccc(Cl)c5)cc4)cnc23)cn1	–	inhibition in vivo at 10 mg/kg [4]: 27%
Cc1ccccc1NC(=O)Nc1ccc(-c2cnc3c(Br)cnn3c2N)cc1	< 4.90	–
Cn1cc(-c2ccn3c(N)c(-c4ccc(NC(=O)Nc5ccc(F)c(C(F)(F)F)c5)cc4)cnc23)cn1	–	inhibition in vivo at 10 mg/kg [4]: < 15%
Cc1ccc(NC(=O)Nc2ccc(-c3cnc4c(Br)cnn4c3N)cc2)cc1	6.09	–
Cc1cccc(NC(=S)Nc2ccc(-c3cnc4ccnn4c3N)cc2)c1	5.00	–
Nc1c(-c2ccc(NC(=O)Nc3ccccc3)cc2)cnc2c(Br)cnn12	5.80	–
COc1ccc(-c2cnc3c(Br)cnn3c2N)cc1	< 4.90	–
Cn1cc(-c2ccn3c(N)c(-c4ccc(NC(=O)Nc5cc(C(F)(F)F)ccc5F)cc4)cnc23)cn1	–	inhibition in vivo at 10 mg/kg [4]: 45%
Cc1cccc(NC(=O)Nc2ccc(-c3cnc4c(C#N)cnn4c3N)cc2)c1	6.03	–
Nc1ccc(-c2cnc3c(Br)cnn3c2N)cc1	< 4.90	–
Cc1cccc(NC(=O)Nc2ccc(-c3cnc4c(Br)cnn4c3)cc2)c1	< 4.90	–
